Measured values taken from US12460243B2, “Mass spectrometry determination of the sensitivity or resistance of bacteria to an antibiotic” (priority 2019, dated 2025).
Bridge positions count the residues as written; N and C are the ends. Square brackets hold non-standard residues; d marks the D form. Peptide text beside a SMILES is read from it. * marks the point of attachment. Heptanoyl(6-Me) = CC(C)CCCCC(=O)*; Dab = NCC[C@H](N)C(=O)O

Tested on: Klebsiella pneumoniae
Assay: MALDI-TOF detection of released characteristic proteins, 10 min at 50° C., filtration (examples V, VI)
Assay type: cell-based
Details: for Aire sous la courbe des pics observés, Protéine ribosomique 50S L29 / Aire sous la courbe des pics observés, Protéine ribosomique 50S L31 / Aire sous la courbe des pics observés, Protéine ribosomique 50S L34 / Aire sous la courbe des pics observés, US9 / Ratio par protéine 6290/Colistine / Ratio par protéine 8308/Colistine / Ratio par protéine CsbD/Colistine / Ratio par protéine DNA BP H-NS/Colistine / Ratio par protéine L29/Colistine / Ratio par protéine L31/Colistine / Ratio par protéine L34/Colistine / Ratio par protéine US9/Colistine / Somme des ratios / Aire sous la courbe des pics observés, 6290 / Aire sous la courbe des pics observés, 8308 / Aire sous la courbe des pics observés, CsbD domain-containing protein / Aire sous la courbe des pics observés, DNA binding protein H-NS / sensitivity or resistance to colistin by MALDI-TOF: colistin 2.5 mg/ml, 10 min 50° C.; for classification by sum of the ratios against threshold: threshold 0.45
Description: The tests were carried out using the following steps: • preparing a suspension of microorganism at 2 McF in water (suspension medium, bioMérieux reference 70700), • preparing a solution of colistin sulfate (Sigma reference C4461) at a concentration of 2× in pure water (taking into account the colistin titer indicated by the manufacturer).
The proteins characteristic of the species Klebsiella pneumoniae are the DNA binding protein H-NS, the ribosomal proteins L29, L31, L34 and US9, the cold shock protein containing a CsbD domain (CsbD domain-containing protein), and the uncharacterized proteins with m/z 6290 and 8308. These proteins are characterized respectively by the peaks at 7705 (DNA binding protein H-NS), 7274 (L29), 7743 (L31), 5381 (L34), 7384 (US9), 8309 (CsbD), more or less 1000 parts per million (ppm). For their part, the hypothetical proteins are characterized by peaks at 6290 and […], more or less 1000 parts per million (ppm).
In the context of this example, the tests were carried out with the method of the present invention to determine the sensitivity or resistance of several bacteria of several strains such as in example V and comprising the following steps: • measuring the intensity of each peak observed, • finding a ratio between the sum of the intensities of the protein peaks of the microorganism and at least 1 peak of colistin. • determining the status, resistant or sensitive to colistin, as a function of the sum of the ratios obtained and of a threshold fixed for each species. • a resistant microorganism will have a low ratio and a sensitive microorganism will have a high ratio.
The K. pneumoniae strains KP S10-1, KP S10-2, KP S15-1, KP S15-2, KP R9-1, KP R9-2, KP R16-1 and KP R16-2 are also studied and the proteins characteristic of the species K. pneumoniae are analyzed. These characteristic proteins are the DNA binding protein H-NS, the ribosomal proteins L29, L31, L34 and US9, the cold shock protein containing a CsbD domain (CsbD domain-containing protein), and the uncharacterized proteins with m/z 6290 and 8308.

Compound: CC(C)CCCCC(=O)N[C@@H](CCN)C(=O)N[C@H](C(=O)N[C@@H](CCN)C(=O)N[C@H]1CCNC(=O)[C@H]([C@@H](C)O)NC(=O)[C@H](CCN)NC(=O)[C@H](CCN)NC(=O)[C@H](CC(C)C)NC(=O)[C@@H](CC(C)C)NC(=O)[C@H](CCN)NC1=O)[C@@H](C)O [colistin] ({Heptanoyl(6-Me)}-[Dab]T[Dab][Dab][Dab][dL]L[Dab][Dab]T; lactam 4-C)
- Aire sous la courbe des pics observés, Protéine ribosomique 50S L29 (strain KP S10-1): 474 unité arbitraire
- Aire sous la courbe des pics observés, Protéine ribosomique 50S L31 (strain KP S10-1): 321 unité arbitraire
- Aire sous la courbe des pics observés, Protéine ribosomique 50S L34 (strain KP S10-1): 0 unité arbitraire
- Aire sous la courbe des pics observés, US9 (strain KP S10-1): 297 unité arbitraire
- Ratio par protéine 6290/Colistine (strain KP S10-1): 0.55
- Ratio par protéine 8308/Colistine (strain KP S10-1): 0.14
- Ratio par protéine CsbD/Colistine (strain KP S10-1): 0.00
- Ratio par protéine DNA BP H-NS/Colistine (strain KP S10-1): 0.25
- Ratio par protéine L29/Colistine (strain KP S10-1): 0.31
- Ratio par protéine L31/Colistine (strain KP S10-1): 0.21
- Ratio par protéine L34/Colistine (strain KP S10-1): 0.00
- Ratio par protéine US9/Colistine (strain KP S10-1): 0.20
- Somme des ratios (strain KP S10-1): 1.66
- Aire sous la courbe des pics observés, 6290 (strain KP S10-2): 146 unité arbitraire
- Aire sous la courbe des pics observés, 8308 (strain KP S10-2): 54 unité arbitraire
- Aire sous la courbe des pics observés, CsbD domain-containing protein (strain KP S10-2): 0 unité arbitraire
- Aire sous la courbe des pics observés, DNA binding protein H-NS (strain KP S10-2): 119 unité arbitraire
- Aire sous la courbe des pics observés, Protéine ribosomique 50S L29 (strain KP S10-2): 124 unité arbitraire
- Aire sous la courbe des pics observés, Protéine ribosomique 50S L31 (strain KP S10-2): 76 unité arbitraire
- Aire sous la courbe des pics observés, Protéine ribosomique 50S L34 (strain KP S10-2): 134 unité arbitraire
- Aire sous la courbe des pics observés, US9 (strain KP S10-2): 77 unité arbitraire
- Ratio par protéine 6290/Colistine (strain KP S10-2): 0.17
- Ratio par protéine 8308/Colistine (strain KP S10-2): 0.06
- Ratio par protéine CsbD/Colistine (strain KP S10-2): 0.00
- Ratio par protéine DNA BP H-NS/Colistine (strain KP S10-2): 0.14
- Ratio par protéine L29/Colistine (strain KP S10-2): 0.15
- Ratio par protéine L31/Colistine (strain KP S10-2): 0.09
- Ratio par protéine L34/Colistine (strain KP S10-2): 0.16
- Ratio par protéine US9/Colistine (strain KP S10-2): 0.09
- Somme des ratios (strain KP S10-2): 0.86
- Aire sous la courbe des pics observés, 6290 (strain KP S15-1): 215 unité arbitraire
- Aire sous la courbe des pics observés, 8308 (strain KP S15-1): 0 unité arbitraire
- Aire sous la courbe des pics observés, CsbD domain-containing protein (strain KP S15-1): 248 unité arbitraire
- Aire sous la courbe des pics observés, DNA binding protein H-NS (strain KP S15-1): 0 unité arbitraire
- Aire sous la courbe des pics observés, Protéine ribosomique 50S L29 (strain KP S15-1): 0 unité arbitraire
- Aire sous la courbe des pics observés, Protéine ribosomique 50S L31 (strain KP S15-1): 0 unité arbitraire
- Aire sous la courbe des pics observés, Protéine ribosomique 50S L34 (strain KP S15-1): 0 unité arbitraire
- Aire sous la courbe des pics observés, US9 (strain KP S15-1): 150 unité arbitraire
- Ratio par protéine 6290/Colistine (strain KP S15-1): 0.24
- Ratio par protéine 8308/Colistine (strain KP S15-1): 0.00
- Ratio par protéine CsbD/Colistine (strain KP S15-1): 0.28
- Ratio par protéine DNA BP H-NS/Colistine (strain KP S15-1): 0.00
- Ratio par protéine L29/Colistine (strain KP S15-1): 0.00
- Ratio par protéine L31/Colistine (strain KP S15-1): 0.00
- Ratio par protéine L34/Colistine (strain KP S15-1): 0.00
- Ratio par protéine US9/Colistine (strain KP S15-1): 0.17
- Somme des ratios (strain KP S15-1): 0.68
- Aire sous la courbe des pics observés, 6290 (strain KP S15-2): 141 unité arbitraire
- Aire sous la courbe des pics observés, 8308 (strain KP S15-2): 0 unité arbitraire
- Aire sous la courbe des pics observés, CsbD domain-containing protein (strain KP S15-2): 237 unité arbitraire
- Aire sous la courbe des pics observés, DNA binding protein H-NS (strain KP S15-2): 0 unité arbitraire
- Aire sous la courbe des pics observés, Protéine ribosomique 50S L29 (strain KP S15-2): 0 unité arbitraire
- Aire sous la courbe des pics observés, Protéine ribosomique 50S L31 (strain KP S15-2): 0 unité arbitraire
- Aire sous la courbe des pics observés, Protéine ribosomique 50S L34 (strain KP S15-2): 0 unité arbitraire
- Aire sous la courbe des pics observés, US9 (strain KP S15-2): 92 unité arbitraire
- Ratio par protéine 6290/Colistine (strain KP S15-2): 0.14
- Ratio par protéine 8308/Colistine (strain KP S15-2): 0.00
- Ratio par protéine CsbD/Colistine (strain KP S15-2): 0.23
- Ratio par protéine DNA BP H-NS/Colistine (strain KP S15-2): 0.00
- Ratio par protéine L29/Colistine (strain KP S15-2): 0.00
- Ratio par protéine L31/Colistine (strain KP S15-2): 0.00
- Ratio par protéine L34/Colistine (strain KP S15-2): 0.00
- Ratio par protéine US9/Colistine (strain KP S15-2): 0.088
- Somme des ratios (strain KP S15-2): 0.45
- classification by sum of the ratios against threshold (strain KP-R9): resistant (the strains whose sum of the ratios is strictly below 0.45 will be considered as resistant)
- classification by sum of the ratios against threshold (strain KP-R16): resistant (the strains whose sum of the ratios is strictly below 0.45 will be considered as resistant)
- classification by sum of the ratios against threshold (strain KP-S10): sensitive (the strains whose sum of the ratios is greater than or equal to 0.45 will be considered as sensitive)
- classification by sum of the ratios against threshold (strain KP-S15): sensitive (the strains whose sum of the ratios is greater than or equal to 0.45 will be considered as sensitive)
- sensitivity or resistance to colistin by MALDI-TOF (strain KP_R9): resistant
- sensitivity or resistance to colistin by MALDI-TOF (strain KP_R16): resistant
- sensitivity or resistance to colistin by MALDI-TOF (strain KP_S10): sensitive
- sensitivity or resistance to colistin by MALDI-TOF (strain KP_S15): sensitive
